Laboratory results from ChEMBL document CHEMBL5226375, “Synthesis and Comprehensive in Vivo Activity Profiling of Olean-12-en-28-ol, 3β-Pentacosanoate in Experimental Autoimmune Encephalomyelitis: A Natural Remyelinating and Anti-Inflammatory Agent” (J Nat Prod, 2023).
Calls of active or inactive are those of the source. The rule behind the calls is not given here.

Legend:
Mus musculus [1] = assay: Anti-inflammatory activity against MOG35-55-induced experimental autoimmune encephalomyelitis C57BL/6 mouse model assessed as fold change in CCL5 gene expression in brain at 0.15 mg/kg/day, ig for 14 days starting from 12th day of immunization by RT-qPCR analysis relative to control; format: functional; conditions: time 14 day
Mus musculus [2] = assay: Anti-inflammatory activity against MOG35-55-induced experimental autoimmune encephalomyelitis C57BL/6 mouse model assessed as upregulation of PLP protein expression in brain at 0.15 to 0.3 mg/kg/day, ig for 14 days starting from 12th day of immunization by western blot analysis; format: functional, organism-based; conditions: dose 0.15-0.3 mg/kg/day, time 14.0 day
Mus musculus [3] = assay: Anti-inflammatory activity against MOG35-55-induced experimental autoimmune encephalomyelitis C57BL/6 mouse model assessed as fold change in CCL5 gene expression in brain at 0.3 mg/kg/day, ig for 14 days starting from 12th day of immunization by RT-qPCR analysis relative to control; format: functional; conditions: time 14 day
Mus musculus [4] = assay: Anti-inflammatory activity against MOG35-55-induced experimental autoimmune encephalomyelitis C57BL/6 mouse model assessed as reduction in serum Th1 cytokine level by measuring reduction in TNF-alpha level at 0.3 mg/kg/day, ig for 14 days starting from 12th day of immunization by ELISA; format: functional, organism-based; conditions: time 14.0 day
Mus musculus [5] = assay: Anti-inflammatory activity against MOG35-55-induced experimental autoimmune encephalomyelitis C57BL/6 mouse model assessed as fold change in C1S gene expression in brain at 0.15 mg/kg/day, ig for 14 days starting from 12th day of immunization by RT-qPCR analysis relative to control; format: functional; conditions: time 14 day
Mus musculus [6] = assay: Anti-inflammatory activity against MOG35-55-induced experimental autoimmune encephalomyelitis C57BL/6 mouse model assessed as methylation of CpG sites of TGFB1 gene promoter in brain at […], ig for 14 days starting from 12th day of immunization by PCR analysis (reference value: 18.3 +/-4%); format: functional; conditions: time 14 day
Mus musculus [7] = assay: Anti-inflammatory activity against MOG35-55-induced experimental autoimmune encephalomyelitis C57BL/6 mouse model assessed as fold change in GFAP gene expression in brain at 0.3 mg/kg/day, ig for 14 days starting from 12th day of immunization by RT-qPCR analysis relative to control; format: functional; conditions: time 14 day
Mus musculus [8] = assay: Anti-inflammatory activity against MOG35-55-induced experimental autoimmune encephalomyelitis C57BL/6 mouse model assessed as upregulation of MBP protein expression in brain at 0.15 to 0.3 mg/kg/day, ig for 14 days starting from 12th day of immunization by western blot analysis; format: functional, organism-based; conditions: dose 0.15-0.3 mg/kg/day, time 14.0 day
Mus musculus [9] = assay: Anti-inflammatory activity against MOG35-55-induced experimental autoimmune encephalomyelitis C57BL/6 mouse model assessed as reduction in serum chemokines level by measuring reduction in FASL level at 0.3 mg/kg/day, ig for 14 days starting from 12th day of immunization by ELISA; format: functional, organism-based; conditions: time 14.0 day
Mus musculus [10] = assay: Anti-inflammatory activity against MOG35-55-induced experimental autoimmune encephalomyelitis C57BL/6 mouse model assessed as fold change in GFAP gene expression in brain at 0.15 mg/kg/day, ig for 14 days starting from 12th day of immunization by RT-qPCR analysis relative to control; format: functional; conditions: time 14 day
Mus musculus [11] = assay: Anti-inflammatory activity against MOG35-55-induced experimental autoimmune encephalomyelitis C57BL/6 mouse model assessed as fold change in TNF-alpha gene expression in brain at 0.15 mg/kg/day, ig for 14 days starting from 12th day of immunization by RT-qPCR analysis relative to control; format: functional; conditions: time 14 day
Mus musculus [12] = assay: Anti-inflammatory activity against MOG35-55-induced experimental autoimmune encephalomyelitis C57BL/6 mouse model assessed as reduction in serum monokines level by measuring reduction in IL-1B level at 600 mg/kg/day, ig for 14 days starting from 12th day of immunization by ELISA; format: functional, organism-based; conditions: time 14.0 day
Mus musculus [13] = assay: Anti-inflammatory activity against MOG35-55-induced experimental autoimmune encephalomyelitis C57BL/6 mouse model assessed as reduction in CXCL9 protein expression in brain at 300 to 600 mg/kg/day, ig for 14 days starting from 12th day of immunization by western blot analysis; format: functional, organism-based; conditions: dose 300-600 mg/kg/day, time 14.0 day
Mus musculus [14] = assay: Anti-inflammatory activity against MOG35-55-induced experimental autoimmune encephalomyelitis C57BL/6 mouse model assessed as methylation of CpG sites of IL17A gene promoter in brain at 600 mg/kg, ig for 14 days starting from 12th day of immunization by PCR analysis (reference value: 58 +/-6%); format: functional; conditions: time 14 day
Mus musculus [15] = assay: Anti-inflammatory activity against MOG35-55-induced experimental autoimmune encephalomyelitis C57BL/6 mouse model assessed as fold change in YWHAH gene expression in brain at 600 mg/kg/day, ig for 14 days starting from 12th day of immunization by RT-qPCR analysis relative to control; format: functional; conditions: time 14 day
Mus musculus [16] = assay: Anti-inflammatory activity against MOG35-55-induced experimental autoimmune encephalomyelitis C57BL/6 mouse model assessed as proportion of brain infiltrating cells expressing CD45+/CD11b/c high surface markers at 600 mg/kg/day, ig for 14 days starting from 12th day of immunization by flow cytometry (reference value: 87.7%); format: functional; conditions: time 14 day
Mus musculus [17] = assay: Anti-inflammatory activity against MOG35-55-induced experimental autoimmune encephalomyelitis C57BL/6 mouse model assessed as fold change in APP gene expression in brain at 600 mg/kg/day, ig for 14 days starting from 12th day of immunization by RT-qPCR analysis relative to control; format: functional; conditions: time 14 day
Mus musculus [18] = assay: Anti-inflammatory activity against MOG35-55-induced experimental autoimmune encephalomyelitis C57BL/6 mouse model assessed as reduction in serum chemokines level by measuring reduction in CCL5 level at 600 mg/kg/day, ig for 14 days starting from 12th day of immunization by ELISA; format: functional, organism-based; conditions: time 14.0 day
Mus musculus [19] = assay: Anti-inflammatory activity against MOG35-55-induced experimental autoimmune encephalomyelitis C57BL/6 mouse model assessed as reduction in serum monokines level by measuring reduction in IL-6 level at 600 mg/kg/day, ig for 14 days starting from 12th day of immunization by ELISA; format: functional, organism-based; conditions: time 14.0 day
Mus musculus [20] = assay: Anti-inflammatory activity against MOG35-55-induced experimental autoimmune encephalomyelitis C57BL/6 mouse model assessed as fold change in HIF1A gene expression in brain at 600 mg/kg/day, ig for 14 days starting from 12th day of immunization by RT-qPCR analysis relative to control; format: functional; conditions: time 14 day
Mus musculus [21] = assay: Anti-inflammatory activity against MOG35-55-induced experimental autoimmune encephalomyelitis C57BL/6 mouse model assessed as methylation of CpG sites of […] gene promoter in brain at 600 mg/kg, ig for 14 days starting from 12th day of immunization by PCR analysis (reference value: 13.1 +/-8%); format: functional; conditions: time 14 day
Mus musculus [22] = assay: Anti-inflammatory activity against MOG35-55-induced experimental autoimmune encephalomyelitis C57BL/6 mouse model assessed as methylation of CpG sites of IL13 gene promoter in brain at 600 mg/kg, ig for 14 days starting from 12th day of immunization by PCR analysis (reference value: 57.3 +/-8%); format: functional; conditions: time 14 day
Mus musculus [23] = assay: Anti-inflammatory activity against MOG35-55-induced experimental autoimmune encephalomyelitis C57BL/6 mouse model assessed as reduction in EAE symptoms by measuring neurological regeneration and behavioral impotence at 600 mg/kg/day, ig for 14 days starting from 12th day of immunization; format: functional, organism-based; conditions: time 14.0 day

With `CCCCCCCCc1ccc(CCC(N)(CO)CO)cc1` [FINGOLIMOD] the “fold change (FC)” value (Mus musculus [1]) was 4.46, the Activity (Mus musculus [2]) was “inactive” and the “fold change (FC)” value (Mus musculus [3]) was -1.06. The Activity (Mus musculus [4]) was “Active”, the “fold change (FC)” value (Mus musculus [5]) was 1.91 and the Activity (Mus musculus [6]) was 35.1%. For the same compound, the “fold change (FC)” value (Mus musculus [7]) was 1.92, the Activity (Mus musculus [8]) was “inactive” and the Activity (Mus musculus [9]) was “Active”. For the same compound, the “fold change (FC)” value (Mus musculus [10]) was 2.62 and the “fold change (FC)” value (Mus musculus [11]) was 2.21.
In the case of `CCCCCCCCCCCCCCCCCCCCCCCCC(=O)O[C@H]1CC[C@]2(C)[C@H]3CC=C4[C@@H]5CC(C)(C)CC[C@]5(CO)CC[C@@]4(C)[C@]3(C)CC[C@H]2C1(C)C`, the Activity (Mus musculus [12]) is reported as “Active”, the Activity (Mus musculus [13]) is reported as “Active” and the Activity (Mus musculus [14]) is reported as 68.3%. The “fold change (FC)” value (Mus musculus [15]) was -1.78, the Activity (Mus musculus [16]) was 66.2% and the “fold change (FC)” value (Mus musculus [17]) was 1.28. The Activity (Mus musculus [18]) was “Active”, the Activity (Mus musculus [19]) was “Active” and the “fold change (FC)” value (Mus musculus [20]) was 1.77. The Activity (Mus musculus [21]) was 15.2%, the Activity (Mus musculus [22]) was 47.9% and the Activity (Mus musculus [23]) was “Active”.
